# Test results reported in patent US9765075B2, “Substituted bridged urea analogs as sirtuin modulators” (GLAXOSMITHKLINE LLC, priority 2013, dated 2017).
# Molecular target: T1, SIRT1 (Homo sapiens, UniProt Q96EB6)
# T1 sequence (Q96EB6 1-747): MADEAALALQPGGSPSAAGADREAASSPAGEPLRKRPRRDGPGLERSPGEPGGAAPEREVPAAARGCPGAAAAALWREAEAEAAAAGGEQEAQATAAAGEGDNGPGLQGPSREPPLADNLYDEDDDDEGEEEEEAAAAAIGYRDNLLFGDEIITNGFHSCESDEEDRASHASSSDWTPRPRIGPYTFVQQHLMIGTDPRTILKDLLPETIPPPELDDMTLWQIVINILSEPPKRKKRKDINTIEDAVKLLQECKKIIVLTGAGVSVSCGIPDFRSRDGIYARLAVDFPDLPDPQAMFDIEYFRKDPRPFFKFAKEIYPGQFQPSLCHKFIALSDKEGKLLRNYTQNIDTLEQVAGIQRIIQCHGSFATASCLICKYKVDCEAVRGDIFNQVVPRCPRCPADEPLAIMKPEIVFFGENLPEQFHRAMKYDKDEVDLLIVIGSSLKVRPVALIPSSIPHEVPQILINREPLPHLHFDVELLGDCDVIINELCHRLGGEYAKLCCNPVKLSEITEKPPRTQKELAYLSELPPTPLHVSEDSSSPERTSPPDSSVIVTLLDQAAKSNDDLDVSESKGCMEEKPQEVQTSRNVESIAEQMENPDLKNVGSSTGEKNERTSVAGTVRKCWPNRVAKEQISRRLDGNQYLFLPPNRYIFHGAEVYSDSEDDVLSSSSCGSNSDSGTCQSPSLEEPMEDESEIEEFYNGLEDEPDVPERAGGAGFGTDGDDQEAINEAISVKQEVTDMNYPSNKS
# Assay: Trp mass spectrometry assay (SIRT1 activation)
# Format: biochemical
# Conditions: Trp mass spectrometry assay; for Tryp AVG EC1.5 (μM): EC1.5 = concentration giving 150% activation of SIRT1; for Emax: percent maximum fold activation of SIRT1, read-out: Tryp % Fold Act
# Outline: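 N-His-tagged SIRT1 (10 nM), expressed in E. coli, was incubated with 0.5 μM Ac-RHKK(Ac)W-NH2 peptide and 120 μM NAD+ for 25 min at 25 °C in HEPES pH 7.5 with […]. The reaction was stopped with formic acid and O-acetyl-ADP-ribose or deacetylated peptide was quantified by mass spectrometry. Results are given as EC1.5 and percent maximal activation relative to DMSO control.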
Tryp AVG EC1.5 (μM),Emax,Structure (SMILES)
A (EC1.5<1 μM),≥ 150%,Cc1noc(C)c1-c1cccc(NC(=O)N2c3nc(-c4cccc(C(F)(F)F)c4)ccc3N3CC[C@H]2C3)n1 [Example 657]
A (EC1.5<1 μM),≥ 150%,O=C(Nc1cccnc1)N1c2nc(-c3cccc(C(F)(F)F)c3)ccc2N2C[C@@H](O)[C@H]1C2 [Example 663]
B (EC1.5 1-25 μM),≥ 150%,COc1cc(NC(=O)N2c3nc(-c4cccc(C(F)(F)F)c4)ccc3N3C[C@@H](O)[C@H]2C3)nc(OC)n1 [Example 664]
A (EC1.5<1 μM),≥ 150%,O=C(Nc1cccc(-c2ccccn2)c1)N1c2nc(-c3cccc(C(F)(F)F)c3)ccc2N2CC[C@H]1C2 [Example 667]
B (EC1.5 1-25 μM),≥ 150%,O=C(Nc1ccncn1)N1c2nc(-c3cccc(C(F)(F)F)c3)ccc2N2C[C@@H](O)[C@H]1C2 [Example 669]
B (EC1.5 1-25 μM),≥ 150%,O=C(NCCCc1ccccn1)N1c2nc(-c3cccc(C(F)(F)F)c3)ccc2N2CC[C@H]1C2 [Example 673]
B (EC1.5 1-25 μM),≥ 150%,O=C(NCCCc1cccnc1)N1c2nc(-c3cccc(C(F)(F)F)c3)ccc2N2CC[C@H]1C2 [Example 674]
A (EC1.5<1 μM),≥ 150%,Cc1cncc(NC(=O)N2c3nc(-c4cccc(Cl)c4)ccc3N3C[C@@H](O)[C@H]2C3)c1 [Example 676]
C (EC1.5>25 μM),< 150%,O=C(Nc1cnccn1)N1c2nc(-c3cccc(Cl)c3)ccc2N2C[C@@H](O)[C@H]1C2 [Example 678]
B (EC1.5 1-25 μM),≥ 150%,COc1cc(NC(=O)N2c3nc(-c4cccc(Cl)c4)ccc3N3C[C@@H](O)[C@H]2C3)ncn1 [Example 679]
B (EC1.5 1-25 μM),≥ 150%,O=C(Nc1cncc(F)c1)N1c2nc(-c3cncc(C(F)(F)F)c3)ccc2N2C[C@@H](O)[C@H]1C2 [Example 691]
A (EC1.5<1 μM),≥ 150%,O=C(Nc1ccccn1)N1c2nc(-c3cncc(C(F)(F)F)c3)ccc2N2C[C@@H](O)[C@H]1C2 [Example 694]
B (EC1.5 1-25 μM),≥ 150%,O=C(Nc1cnccn1)N1c2nc(-c3cncc(C(F)(F)F)c3)ccc2N2C[C@@H](O)[C@H]1C2 [Example 695]
A (EC1.5<1 μM),≥ 150%,O=C(Nc1cccc(-c2cnco2)n1)N1c2nc(-c3cccc(C(F)(F)F)c3)ccc2N2C[C@@H](O)[C@H]1C2 [Example 698]
B (EC1.5 1-25 μM),≥ 150%,O=C(Nc1ccncn1)N1c2nc(-c3cncc(C(F)(F)F)c3)ccc2N2C[C@@H](O)[C@H]1C2 [Example 700]

# Continued, compound first:
Structure (SMILES),Tryp AVG EC1.5 (μM),Emax
CCCn1cc(-c2cccc(NC(=O)N3c4nc(-c5cccc(C(F)(F)F)c5)ccc4N4CC[C@H]3C4)n2)cn1 [Example 656],A (EC1.5<1 μM),≥ 150%
O=C(Nc1cccc(C2=CCOCC2)n1)N1c2nc(-c3cccc(C(F)(F)F)c3)ccc2N2CC[C@H]1C2 [Example 658],A (EC1.5<1 μM),≥ 150%
NC(=O)c1ccc(NC(=O)N2c3nc(-c4cccc(C(F)(F)F)c4)ccc3N3CC[C@H]2C3)cc1 [Example 659],A (EC1.5<1 μM),≥ 150%
O=C(Nc1cccc(-c2cccnc2)c1)N1c2nc(-c3cccc(C(F)(F)F)c3)ccc2N2CC[C@H]1C2 [Example 660],A (EC1.5<1 μM),≥ 150%
O=C(NCCn1ccnc1)N1c2nc(-c3cccc(C(F)(F)F)c3)ccc2N2CC[C@H]1C2 [Example 661],C (EC1.5>25 μM),≥ 150%
O=C(Nc1cc(-c2cnco2)ccn1)N1c2nc(-c3cccc(C(F)(F)F)c3)ccc2N2C[C@@H](O)[C@H]1C2 [Example 662],B (EC1.5 1-25 μM),≥ 150%
O=C(Nc1cccc(-c2cnco2)c1)N1c2nc(-c3cccc(C(F)(F)F)c3)ccc2N2C[C@@H](O)[C@H]1C2 [Example 665],A (EC1.5<1 μM),≥ 150%
O=C(Nc1ccc2[nH]ncc2c1)N1c2nc(-c3cccc(C(F)(F)F)c3)ccc2N2CC[C@H]1C2 [Example 666],A (EC1.5<1 μM),≥ 150%
CC(=O)c1ccc(NC(=O)N2c3nc(-c4cccc(C(F)(F)F)c4)ccc3N3CC[C@H]2C3)cc1 [Example 668],A (EC1.5<1 μM),≥ 150%
Cc1cncc(NC(=O)N2c3nc(-c4cccc(C(F)(F)F)c4)ccc3N3C[C@@H](O)[C@H]2C3)c1 [Example 670],A (EC1.5<1 μM),≥ 150%
CC(=O)c1cccc(NC(=O)N2c3nc(-c4cccc(C(F)(F)F)c4)ccc3N3CC[C@H]2C3)c1 [Example 671],A (EC1.5<1 μM),≥ 150%
O=C(Nc1ccc(Br)c(-c2cnco2)c1)N1c2nc(-c3cccc(C(F)(F)F)c3)ccc2N2CC[C@H]1C2 [Example 672],A (EC1.5<1 μM),≥ 150%
O=C(Nc1ccccn1)N1c2nc(-c3cccc(Cl)c3)ccc2N2C[C@@H](O)[C@H]1C2 [Example 675],B (EC1.5 1-25 μM),≥ 150%
O=C(Nc1cncc(F)c1)N1c2nc(-c3cccc(Cl)c3)ccc2N2C[C@@H](O)[C@H]1C2 [Example 677],B (EC1.5 1-25 μM),≥ 150%
COc1cc(NC(=O)N2c3nc(-c4cccc(Cl)c4)ccc3N3C[C@@H](O)[C@H]2C3)nc(OC)n1 [Example 680],B (EC1.5 1-25 μM),≥ 150%
O=C(Nc1cccnc1)N1c2nc(-c3cccc(Cl)c3)ccc2N2C[C@@H](O)[C@H]1C2 [Example 681],B (EC1.5 1-25 μM),≥ 150%

Structure (SMILES),Tryp AVG EC1.5 (μM),Emax
O=C(Nc1cccnn1)N1c2nc(-c3cccc(Cl)c3)ccc2N2C[C@@H](O)[C@H]1C2 [Example 682],B (EC1.5 1-25 μM),≥ 150%
O=C(Nc1cccc(-c2cnco2)c1)N1c2nc(-c3cccc(Cl)c3)ccc2N2C[C@@H](O)[C@H]1C2 [Example 683],A (EC1.5<1 μM),≥ 150%
O=C(Nc1ccncn1)N1c2nc(-c3cccc(Cl)c3)ccc2N2C[C@@H](O)[C@H]1C2 [Example 684],B (EC1.5 1-25 μM),≥ 150%
O=C(Nc1cc(-c2cnco2)ccn1)N1c2nc(-c3cccc(Cl)c3)ccc2N2C[C@@H](O)[C@H]1C2 [Example 685],B (EC1.5 1-25 μM),≥ 150%
Cc1nc(NC(=O)N2c3nc(-c4cccc(Cl)c4)ccc3N3C[C@@H](O)[C@H]2C3)sc1C [Example 688],B (EC1.5 1-25 μM),≥ 150%
O=C(NCCCCn1ccnc1)N1c2nc(-c3cccc(C(F)(F)F)c3)ccc2N2CC[C@H]1C2 [Example 689],B (EC1.5 1-25 μM),≥ 150%
Cc1cncc(NC(=O)N2c3nc(-c4cncc(C(F)(F)F)c4)ccc3N3C[C@@H](O)[C@H]2C3)c1 [Example 690],B (EC1.5 1-25 μM),≥ 150%
O=C1CN2C[C@H]1N(C(=O)Nc1cccc(-c3cnco3)c1)c1nc(-c3cccc(C(F)(F)F)c3)ccc12 [Example 692],A (EC1.5<1 μM),≥ 150%
O=C(Nc1cccc(-c2cnco2)n1)N1c2nc(-c3cccc(Cl)c3)ccc2N2C[C@@H](O)[C@H]1C2 [Example 693],A (EC1.5<1 μM),≥ 150%
COc1cc(NC(=O)N2c3nc(-c4cncc(C(F)(F)F)c4)ccc3N3C[C@@H](O)[C@H]2C3)ncn1 [Example 696],B (EC1.5 1-25 μM),≥ 150%
Cc1nc(NC(=O)N2c3nc(-c4cncc(C(F)(F)F)c4)ccc3N3C[C@@H](O)[C@H]2C3)sc1C [Example 697],B (EC1.5 1-25 μM),≥ 150%
Cc1nc(NC(=O)N2c3nc(-c4cccc(C(F)(F)F)c4)ccc3N3C[C@@H](O)[C@H]2C3)sc1C [Example 699],B (EC1.5 1-25 μM),≥ 150%
O=C(Nc1cccnn1)N1c2nc(-c3cncc(C(F)(F)F)c3)ccc2N2C[C@@H](O)[C@H]1C2 [Example 701],B (EC1.5 1-25 μM),≥ 150%
O=C(Nc1cccc(-c2cnco2)n1)N1c2nc(-c3cncc(C(F)(F)F)c3)ccc2N2C[C@@H](O)[C@H]1C2 [Example 703],A (EC1.5<1 μM),≥ 150%
COc1cc(NC(=O)N2c3nc(-c4cncc(C(F)(F)F)c4)ccc3N3C[C@@H](O)[C@H]2C3)nc(OC)n1 [Example 704],B (EC1.5 1-25 μM),≥ 150%
